{"source": "patent US20170087174A1", "about": "“COMBINATION THERAPY REGIMEN FOR TREATMENT OF HCV” (JANSSEN PHARMACEUTICALS, INC., priority 2015, published 2017)", "key": {"BCRP": {"biological_target": "T1, BCRP (Homo sapiens, UniProt Q9UNQ0)", "T1 sequence (Q9UNQ0 1-655)": "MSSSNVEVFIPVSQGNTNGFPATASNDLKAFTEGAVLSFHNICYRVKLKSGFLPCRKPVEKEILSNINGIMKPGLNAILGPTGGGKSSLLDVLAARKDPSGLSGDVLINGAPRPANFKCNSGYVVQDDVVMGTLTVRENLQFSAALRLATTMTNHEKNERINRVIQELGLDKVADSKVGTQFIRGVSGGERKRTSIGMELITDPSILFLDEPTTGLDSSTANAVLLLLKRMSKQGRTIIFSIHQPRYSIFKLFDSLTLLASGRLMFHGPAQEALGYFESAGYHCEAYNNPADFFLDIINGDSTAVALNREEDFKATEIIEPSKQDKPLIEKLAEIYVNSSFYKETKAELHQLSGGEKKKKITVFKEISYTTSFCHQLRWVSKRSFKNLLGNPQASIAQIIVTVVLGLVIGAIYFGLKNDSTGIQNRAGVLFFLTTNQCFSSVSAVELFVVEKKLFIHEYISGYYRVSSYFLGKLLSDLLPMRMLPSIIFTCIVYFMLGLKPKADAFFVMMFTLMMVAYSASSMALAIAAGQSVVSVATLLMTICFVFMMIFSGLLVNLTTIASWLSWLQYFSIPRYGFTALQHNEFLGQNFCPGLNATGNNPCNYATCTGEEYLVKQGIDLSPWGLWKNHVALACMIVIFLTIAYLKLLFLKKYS", "conditions": "in vitro; cited from earlier work"}, "OATP1B3": {"biological_target": "T2, OATP1B3 (Homo sapiens, UniProt Q9NPD5)", "T2 sequence (Q9NPD5 1-702)": "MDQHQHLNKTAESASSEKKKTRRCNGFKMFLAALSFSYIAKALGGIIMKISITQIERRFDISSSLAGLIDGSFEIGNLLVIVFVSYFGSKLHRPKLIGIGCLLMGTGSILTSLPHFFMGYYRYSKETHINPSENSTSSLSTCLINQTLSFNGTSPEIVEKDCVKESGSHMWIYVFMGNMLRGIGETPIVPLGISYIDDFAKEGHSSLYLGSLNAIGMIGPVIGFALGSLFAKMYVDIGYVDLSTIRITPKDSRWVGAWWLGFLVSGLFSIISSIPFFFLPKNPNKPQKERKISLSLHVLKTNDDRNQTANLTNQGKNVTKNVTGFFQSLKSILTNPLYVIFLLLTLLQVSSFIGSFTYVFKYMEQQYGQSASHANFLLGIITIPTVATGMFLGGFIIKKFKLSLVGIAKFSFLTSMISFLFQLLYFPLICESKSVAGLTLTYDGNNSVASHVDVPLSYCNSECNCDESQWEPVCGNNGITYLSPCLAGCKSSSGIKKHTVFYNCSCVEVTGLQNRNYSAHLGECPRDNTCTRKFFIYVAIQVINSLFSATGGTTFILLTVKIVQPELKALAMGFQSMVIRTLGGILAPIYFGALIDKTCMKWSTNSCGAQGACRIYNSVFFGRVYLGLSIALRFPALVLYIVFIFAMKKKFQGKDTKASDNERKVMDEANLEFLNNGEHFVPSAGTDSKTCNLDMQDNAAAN", "conditions": "in vitro; cited from earlier work"}, "[1]": {"experiment": "Phase 2a open-label combination study: pharmacokinetics (exposure)", "type": "in vivo, human", "description": "A randomized, Phase 2a, open-label study was carried out to evaluate the safety, pharmacokinetics and efficacy of the combination of Compound (III), Odalasvir and Simeprevir in Genotype 1 treatment-naïve subjects with chronic hepatitis C. Other treatment-naïve subjects included Genotype 2, 3, 4, 5 and 6.\nThe aim of the study was to determine the efficacy, pharmacokinetics (PK), and safety of Compound (III)+Odalasvir±SMV in HCV-infected subjects.\nThis was an open-label study evaluating various dosing regimens of Compound (III)+Odalasvir±SMV for 6-8 weeks in treatment-naïve HCV-infected subjects with varying clinical characteristics (e.g., GT 1 or 3, presence/absence of compensated Child Pugh A cirrhosis). Efficacy, PK and safety evaluations were conducted during and through 24 weeks post dosing. Up to 15 cohorts were enrolled; data was generated from cohorts that have completed dosing."}, "2B6": {"biological_target": "T3, 2B6 (Homo sapiens, UniProt P20813)", "T3 sequence (P20813 1-491)": "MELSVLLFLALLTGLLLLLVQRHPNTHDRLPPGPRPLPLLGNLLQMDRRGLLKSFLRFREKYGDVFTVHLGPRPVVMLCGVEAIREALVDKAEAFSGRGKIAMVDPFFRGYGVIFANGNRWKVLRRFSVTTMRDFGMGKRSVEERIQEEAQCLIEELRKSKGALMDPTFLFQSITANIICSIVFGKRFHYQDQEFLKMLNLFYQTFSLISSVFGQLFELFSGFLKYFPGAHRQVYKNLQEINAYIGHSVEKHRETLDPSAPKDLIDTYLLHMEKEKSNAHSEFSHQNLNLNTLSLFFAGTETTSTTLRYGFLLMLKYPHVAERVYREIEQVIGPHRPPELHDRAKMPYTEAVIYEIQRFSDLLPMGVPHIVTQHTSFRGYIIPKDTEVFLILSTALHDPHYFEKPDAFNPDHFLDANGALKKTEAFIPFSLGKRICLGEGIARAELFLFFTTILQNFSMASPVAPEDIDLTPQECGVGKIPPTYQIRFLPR", "experiment": "CYP2B6 inhibition", "type": "in vitro ADME", "conditions": "up to 10 μM"}, "1A2": {"biological_target": "T4, 1A2 (Homo sapiens, UniProt P05177)", "T4 sequence (P05177 1-516)": "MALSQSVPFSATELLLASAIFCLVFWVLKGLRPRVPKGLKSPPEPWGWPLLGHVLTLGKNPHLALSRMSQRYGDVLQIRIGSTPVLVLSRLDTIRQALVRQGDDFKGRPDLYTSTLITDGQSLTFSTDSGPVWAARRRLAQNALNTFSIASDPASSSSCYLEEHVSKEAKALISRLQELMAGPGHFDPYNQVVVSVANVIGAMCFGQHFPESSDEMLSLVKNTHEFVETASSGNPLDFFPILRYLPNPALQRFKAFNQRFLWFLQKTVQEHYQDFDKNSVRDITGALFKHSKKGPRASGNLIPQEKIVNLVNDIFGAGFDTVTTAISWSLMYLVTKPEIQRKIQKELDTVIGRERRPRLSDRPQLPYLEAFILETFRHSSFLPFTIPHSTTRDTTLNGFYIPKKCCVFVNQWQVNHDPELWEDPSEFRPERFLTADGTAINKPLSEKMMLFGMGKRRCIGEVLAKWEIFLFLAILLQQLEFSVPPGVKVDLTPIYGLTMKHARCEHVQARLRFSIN", "experiment": "CYP1A2 inhibition", "type": "in vitro ADME", "conditions": "up to 10 μM"}, "MRP2/3": {"biological_target": "MRP2/3 (Homo sapiens, UniProt O15438)", "sequence (O15438 whole entry)": "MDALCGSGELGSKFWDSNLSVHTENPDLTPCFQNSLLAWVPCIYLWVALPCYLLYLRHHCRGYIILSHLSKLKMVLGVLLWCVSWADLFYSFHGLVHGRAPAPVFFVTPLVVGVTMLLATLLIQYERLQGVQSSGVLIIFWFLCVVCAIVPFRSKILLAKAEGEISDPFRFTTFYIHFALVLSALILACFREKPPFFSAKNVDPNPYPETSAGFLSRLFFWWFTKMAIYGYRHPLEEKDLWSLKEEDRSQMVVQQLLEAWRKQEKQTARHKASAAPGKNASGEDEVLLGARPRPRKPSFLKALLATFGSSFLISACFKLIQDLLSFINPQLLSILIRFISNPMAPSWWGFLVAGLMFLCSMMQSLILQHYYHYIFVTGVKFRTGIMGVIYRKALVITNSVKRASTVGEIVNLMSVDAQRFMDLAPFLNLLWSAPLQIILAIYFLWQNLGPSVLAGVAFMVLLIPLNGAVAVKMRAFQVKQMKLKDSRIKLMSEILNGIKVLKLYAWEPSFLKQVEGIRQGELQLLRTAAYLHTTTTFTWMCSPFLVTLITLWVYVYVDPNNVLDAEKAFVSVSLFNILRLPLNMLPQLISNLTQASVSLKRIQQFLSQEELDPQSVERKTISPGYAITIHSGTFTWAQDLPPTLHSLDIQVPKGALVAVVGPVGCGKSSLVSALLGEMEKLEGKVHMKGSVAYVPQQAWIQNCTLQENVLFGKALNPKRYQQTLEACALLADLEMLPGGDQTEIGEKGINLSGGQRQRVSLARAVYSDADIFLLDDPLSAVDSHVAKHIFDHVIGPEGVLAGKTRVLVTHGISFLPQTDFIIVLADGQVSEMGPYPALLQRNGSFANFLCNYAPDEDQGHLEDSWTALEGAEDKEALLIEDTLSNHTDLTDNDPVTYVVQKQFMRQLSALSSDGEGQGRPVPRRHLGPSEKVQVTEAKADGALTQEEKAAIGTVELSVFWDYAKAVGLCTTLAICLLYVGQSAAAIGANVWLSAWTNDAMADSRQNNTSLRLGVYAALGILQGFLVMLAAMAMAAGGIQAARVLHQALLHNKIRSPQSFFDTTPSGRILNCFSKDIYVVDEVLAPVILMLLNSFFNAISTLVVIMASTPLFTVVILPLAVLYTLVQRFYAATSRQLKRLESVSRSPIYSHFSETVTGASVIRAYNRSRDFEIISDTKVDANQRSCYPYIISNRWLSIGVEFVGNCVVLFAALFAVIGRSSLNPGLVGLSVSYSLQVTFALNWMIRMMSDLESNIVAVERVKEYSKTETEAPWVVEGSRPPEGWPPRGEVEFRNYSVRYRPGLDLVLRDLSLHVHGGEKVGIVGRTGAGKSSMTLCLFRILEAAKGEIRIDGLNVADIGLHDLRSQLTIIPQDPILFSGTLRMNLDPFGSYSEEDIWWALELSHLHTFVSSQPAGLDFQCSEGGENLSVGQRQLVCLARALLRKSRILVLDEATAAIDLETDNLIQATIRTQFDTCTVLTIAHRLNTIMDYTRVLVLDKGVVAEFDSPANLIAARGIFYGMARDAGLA", "conditions": "in vitro; cited from earlier work"}, "BSEP": {"biological_target": "BSEP (Homo sapiens, UniProt O95342)", "sequence (O95342 whole entry)": "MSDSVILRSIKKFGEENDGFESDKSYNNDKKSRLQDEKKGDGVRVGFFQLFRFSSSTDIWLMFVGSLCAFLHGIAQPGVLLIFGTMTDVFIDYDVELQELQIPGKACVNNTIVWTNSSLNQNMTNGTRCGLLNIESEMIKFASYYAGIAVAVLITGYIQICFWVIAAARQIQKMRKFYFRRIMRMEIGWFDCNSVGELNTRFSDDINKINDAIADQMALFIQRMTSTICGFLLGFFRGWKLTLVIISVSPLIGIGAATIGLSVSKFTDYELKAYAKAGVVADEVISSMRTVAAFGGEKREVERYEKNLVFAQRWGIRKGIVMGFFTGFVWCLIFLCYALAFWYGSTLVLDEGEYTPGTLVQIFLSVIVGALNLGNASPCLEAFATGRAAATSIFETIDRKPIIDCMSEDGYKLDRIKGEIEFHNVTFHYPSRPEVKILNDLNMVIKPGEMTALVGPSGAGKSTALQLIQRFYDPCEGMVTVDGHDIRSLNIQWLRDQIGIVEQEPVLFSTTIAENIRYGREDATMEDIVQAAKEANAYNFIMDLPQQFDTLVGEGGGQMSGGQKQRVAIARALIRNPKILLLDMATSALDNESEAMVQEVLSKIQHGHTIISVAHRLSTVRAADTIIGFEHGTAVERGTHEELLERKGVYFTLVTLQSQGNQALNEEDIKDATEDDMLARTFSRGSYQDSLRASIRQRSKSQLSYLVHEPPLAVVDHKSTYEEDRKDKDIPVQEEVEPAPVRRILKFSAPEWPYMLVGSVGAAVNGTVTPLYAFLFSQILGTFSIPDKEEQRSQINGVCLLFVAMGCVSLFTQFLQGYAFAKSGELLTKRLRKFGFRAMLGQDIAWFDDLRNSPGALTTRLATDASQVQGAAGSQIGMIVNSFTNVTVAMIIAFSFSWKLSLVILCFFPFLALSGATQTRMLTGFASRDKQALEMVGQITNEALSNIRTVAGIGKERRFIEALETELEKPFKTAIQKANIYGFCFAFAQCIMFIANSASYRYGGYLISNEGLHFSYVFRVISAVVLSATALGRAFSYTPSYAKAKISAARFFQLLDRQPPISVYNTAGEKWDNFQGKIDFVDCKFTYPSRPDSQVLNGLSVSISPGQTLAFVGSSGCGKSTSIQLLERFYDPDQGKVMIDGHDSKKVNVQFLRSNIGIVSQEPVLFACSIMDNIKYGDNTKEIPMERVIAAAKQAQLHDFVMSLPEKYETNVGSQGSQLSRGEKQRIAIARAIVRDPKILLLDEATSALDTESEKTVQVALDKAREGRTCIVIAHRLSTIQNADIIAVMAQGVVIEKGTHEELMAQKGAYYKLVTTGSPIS", "conditions": "in vitro, cited from earlier work"}}}
{"smiles": "CC(C)OC(=O)[C@H](C)N[P@](=O)(OC[C@@]1(F)O[C@@H](n2ccc(=O)[nH]c2=O)[C@](C)(O)[C@@H]1O)Oc1ccccc1", "note": "[Compound (III), isopropyl ((S)-(((2S,3S,4R,5R)-5-(2,4-dioxo-3,4-dihydropyrimidin-1 (2H)-yl)-2-fluoro-3,4-dihydroxy-4-methyltetrahydrofuran-2-yl)methoxy)(phenoxy)phosphoryl)-L-alaninate]", "values": [{"measurement": "BCRP inhibition (in words)", "setting": "BCRP", "result": "no in vitro inhibition"}, {"measurement": "OATP1B3 inhibition (in words)", "setting": "OATP1B3", "result": "no in vitro inhibition"}]}
{"smiles": "COC(=O)N[C@H](C(=O)N1[C@H](c2nc3cc(-c4cc5ccc4CCc4ccc(c(-c6ccc7[nH]c([C@@H]8C[C@@H]9CCCC[C@@H]9N8C(=O)[C@@H](NC(=O)OC)C(C)C)nc7c6)c4)CC5)ccc3[nH]2)C[C@@H]2CCCC[C@@H]21)C(C)C", "note": "[ODV, Odalasvir]", "values": [{"measurement": "observed exposure versus anticipated", "setting": "[1]; Cohort 1 / group (i)", "result": "higher than anticipated"}, {"measurement": "decrease of exposure with dosing frequency", "setting": "[1]; reducing ODV dosing from QD to QOD", "result": "proportionally"}, {"measurement": "inhibition of 2B6", "setting": "2B6", "result": "no inhibition"}, {"measurement": "inhibition of 1A2", "setting": "1A2", "result": "no inhibition"}, {"measurement": "MRP3 inhibition (in words)", "setting": "MRP2/3", "result": "no inhibition"}, {"measurement": "BSEP inhibition (in words)", "setting": "BSEP", "result": "no inhibition"}, {"measurement": "BCRP inhibition (in words)", "setting": "BCRP", "result": "no inhibition"}, {"measurement": "OATP1B3 inhibition (in words)", "setting": "OATP1B3", "result": "no inhibition"}]}
{"smiles": "COc1ccc2c(O[C@@H]3C[C@H]4C(=O)N[C@]5(C(=O)NS(=O)(=O)C6CC6)C[C@H]5/C=C\\CCCCN(C)C(=O)[C@@H]4C3)cc(-c3nc(C(C)C)cs3)nc2c1C", "note": "[SMV, Simeprevir, reference compound]", "values": [{"measurement": "decrease of exposure with dose", "setting": "[1]; in vivo", "result": "less than proportionally"}, {"measurement": "observed exposure versus anticipated", "setting": "[1]; in vivo", "result": "higher than anticipated"}, {"measurement": "BSEP inhibition (in words)", "setting": "BSEP", "result": "strong/moderate"}, {"measurement": "IC50", "setting": "BSEP; read-out: BSEP inhibition IC50", "result": 1.7, "unit": "µM"}]}
